Patent US4096259A, “Non-amphetaminic psychostimulating compositions of 1,4-disubstituted piperazines” (priority 1975, dated 1978)

Legend:
[1] = Acute toxicity (LD50) in mice, per os; details: mouse, in vivo, po
From the text: Acute toxicity was studied by determining the LD50 in mice, the derivatives being administered per os.

[2] = system: rat isolated duodenum; assay: In vitro papaverine spasmolytic activity: duodenum contractions in rats induced by barium chloride; details: for Spasmolytic activity (papaverine hydrochloride = 1): in vitro, rat duodenum, barium chloride, relative to papaverine hydrochloride = 1
Method: The papaverine spasmolytic activity was measured "in vitro" by the concentration ratio: active principle/papaverine hydrochloride concentration, which reduces duodenum contractions in rats, induced by barium chloride, by 50% according to the method of POMARET J. C., SERGANT - ODY M., POURRIAS B. and HUGUET G. (Therapie, 1969, 24, 109-143).
(§1) Table V below gives, by way of example, the complementary pharmacological activities such as antiserotonin, adrenolytic and atropinic activities for derivatives N° 21, 23 and 33, the spasmolytic activity of which is the greatest for the rat isolated duodenum.

[3] = system: exploration response in mice; assay: Psychostimulating activity: increase of exploration response in mice (actimetry); assay type: in vivo; details: Mus musculus, po, per os, dose which increases exploration response by 50%
From the text: The psychostimulating activity was studied by determining the dose which increases the exploration response in mice (actimetry) by 50% (ED50),according to the method described by BOISSIER J.R. and SIMON P. (Arc. Int. Pharmacolyn, 1965, 212-221158).

[4] = Group toxicity (LD50 grouped mice / LD50 isolated mice); details: mouse, in vivo
[5] = system: dog cardiovascular system; assay: Secondary action on the dog cardiovascular system, intravenous; assay type: in vivo; details: intravenous administration
[6] = system: sleep in mice; assay: Anti-sleep activity in mice; assay type: in vivo
[7] = system: mortality with pentetrazole in mice; assay: Potentiation of mortality with pentetrazole in mice; assay type: in vivo; details: per os
[8] = system: ptose with reserpine in mice; assay: Ptose antagonism with reserpine in mice; assay type: in vivo; details: Mus musculus, po, per os
[9] = system: Guinea-pig seminal vesicle; assay: In vitro adrenolytic action on the Guinea-pig seminal vesicle; details: Yohimbine hydrochloride = 1
From the text: as §1

[10] = system: Guinea-pig ileum; assay: In vitro atropinic action on the Guinea-pig ileum; details: Atropine sulfate = 1
From the text: as §1

[11] = system: paw vessels of the dog; assay: In vivo spasmolytic action on paw vessels of the dog; details: papaverine hydrochloride = 1
From the text: as §1

[12] = system: rabbit isolated ear; assay: In vitro spasmolytic action on the rabbit isolated ear; details: papaverine hydrochloride = 1
From the text: as §1

[13] = system: rabbit aorta; assay: In vitro spasmolytic action on the rabbit aorta; details: papaverine hydrochloride = 1
From the text: as §1

[14] = Chronic toxicity in rats, oral; assay type: in vivo; details: oral, 80 mg/kg daily, 6 out of 7 days
[15] = system: aggressiveness in mice; assay: Aggressiveness in mice in the electric struggle test; assay type: in vivo; details: Mus musculus, po, per os, read-out: increase in aggressiveness in the electric struggle test ED50
[16] = Anorectic action in rats; assay type: in vivo
[17] = system: neurotic depression, neurasthenia and school overwork; assay: Clinical test in neurotic depression, neurasthenia and school overwork; assay type: in vivo, adults; details: 30 mg daily oral, one month
Method: By way of example, clinical tests were carried out on derivatives N° 5 and 21.
Derivative N° 5 was administered at a dose of 30 mg daily in three oral administrations of 10 mg to 6 adults treated for neurotic depression, neurasthenia and school overwork. The following results were obtained after treatment for one month: […]

CCOC(=O)CCCN1CCN(CCOC(c2ccccc2)c2ccc(F)cc2)CC1 (stereo not drawn) [Derivative 24]
LD50 [1]: 700 mg/kg | Spasmolytic activity (papaverine hydrochloride = 1) [2]: 2,5 | ED50 [3]: 50 mg/kg

CCCC(OCCN1CCN(CCC(=O)OCC)CC1)c1ccc(F)cc1 (stereo not drawn) [Derivative 36]
LD50 [1]: 1600 mg/kg | Spasmolytic activity (papaverine hydrochloride = 1) [2]: 5 | ED50 [3]: > 100 mg/kg

O=C(O)CCN1CCN(CCOC(c2ccccc2)c2ccccc2)CC1 [Derivative 2]
selectivity ratio [4]: 0.6 | secondary action on the dog cardiovascular system [5]: devoid of any secondary action | Anti-sleep activity in mice [6]: Nil | Potentiation of mortality with pentetrazole in mice ED50 [7]: 320 mg/kg | ED50 [8]: 55 mg/kg | LD50 [1]: 2250 mg/kg | ED50 [3]: 80 mg/kg

CCOC(=O)CCCN1CCN(CCOC(c2ccc(F)cc2)c2ccc(F)cc2)CC1 [Derivative 23]
In vitro adrenolytic action on the Guinea-pig seminal vesicle [9]: 3 | In vitro atropinic action on the Guinea-pig ileum [10]: > 0,01 | In vivo spasmolytic action on paw vessels of the dog [11]: 2 | In vitro spasmolytic action on the rabbit isolated ear [12]: 0,3 | LD50 [1]: 800 mg/kg | Spasmolytic activity (papaverine hydrochloride = 1) [2]: 13,5 | spasmolytic activity for the rat isolated duodenum (in words) [2]: greatest | In vitro spasmolytic action on the rabbit aorta [13]: 3 | ED50 [3]: 50 mg/kg

CCCCCCOC(=O)CCN1CCN(CCOC(c2ccc(F)cc2)c2ccc(F)cc2)CC1 [Derivative 26]
LD50 [1]: 800 mg/kg | Spasmolytic activity (papaverine hydrochloride = 1) [2]: 1 | ED50 [3]: 200 mg/kg

CCOC(=O)CN1CCN(CCOC(c2ccc(F)cc2)c2ccc(F)cc2)CC1 [Derivative 15]
LD50 [1]: 1200 mg/kg | Spasmolytic activity (papaverine hydrochloride = 1) [2]: 6,5 | ED50 [3]: 40 mg/kg

O=C(O)CCCN1CCN(CCOC(c2ccccc2)c2ccccc2)CC1 [Derivative 3]
selectivity ratio [4]: 1.25 | secondary action on the dog cardiovascular system [5]: devoid of any secondary action | Anti-sleep activity in mice [6]: Nil | Potentiation of mortality with pentetrazole in mice ED50 [7]: > 300 mg/kg | ED50 [8]: 160 mg/kg | LD50 [1]: 1500 mg/kg | ED50 [3]: 80 mg/kg

COc1ccccc1N1CCN(C(=O)CN2CCN(CCOC(c3ccccc3)c3ccccc3)CC2)CC1 [Derivative 32]
LD50 [1]: 1200 mg/kg | Spasmolytic activity (papaverine hydrochloride = 1) [2]: 2 | ED50 [3]: 100 mg/kg

CCOC(=O)CCN1CCN(CCOC(c2ccccc2)c2ccccc2)CC1 [Derivative 16]
selectivity ratio [4]: 0.8 | secondary action on the dog cardiovascular system [5]: devoid of any secondary action | Anti-sleep activity in mice [6]: Nil | Potentiation of mortality with pentetrazole in mice ED50 [7]: > 400 mg/kg | ED50 [8]: 190 mg/kg | LD50 [1]: 2000 mg/kg | Spasmolytic activity (papaverine hydrochloride = 1) [2]: 1,5 | ED50 [3]: 100 mg/kg

N#CCCN1CCN(CCOC(c2ccccc2)c2ccccc2)CC1 [Derivative 29]
LD50 [1]: 300 mg/kg | Spasmolytic activity (papaverine hydrochloride = 1) [2]: 1 | ED50 [3]: 40 mg/kg

CCOC(=O)CCN1CCN(CCOC(c2ccccc2)c2ccc([N+](=O)[O-])cc2)CC1 (stereo not drawn) [Derivative 20]
LD50 [1]: > 1600 mg/kg | Spasmolytic activity (papaverine hydrochloride = 1) [2]: 5,5 | ED50 [3]: > 400 mg/kg

CCOC(=O)CCN1CCN(CCOC(c2ccccc2)c2ccccc2Cl)CC1 (stereo not drawn) [Derivative 17]
LD50 [1]: 1600 mg/kg | Spasmolytic activity (papaverine hydrochloride = 1) [2]: 1,5 | ED50 [3]: > 200 mg/kg

O=C(O)CCCCN1CCN(CCOC(c2ccccc2)c2ccc(F)cc2)CC1 (stereo not drawn) [Derivative 13]
LD50 [1]: 1400 mg/kg | ED50 [3]: 35 mg/kg

O=C(CN1CCN(CCOC(c2ccc(F)cc2)c2ccc(F)cc2)CC1)N1CCN(Cc2ccc3c(c2)OCO3)CC1 [Derivative 34]
LD50 [1]: > 1600 mg/kg | Spasmolytic activity (papaverine hydrochloride = 1) [2]: 1,5 | ED50 [3]: 160 mg/kg

O=C(O)CCN1CCN(CCOC(c2ccccc2)c2cccc(C(F)(F)F)c2)CC1 (stereo not drawn) [Derivative 6]
LD50 [1]: 1200 mg/kg | ED50 [3]: 200 mg/kg

O=C(CN1CCN(CCOC(c2ccccc2)c2ccccc2)CC1)N1CCOCC1 [Derivative 31]
LD50 [1]: 800 mg/kg | Spasmolytic activity (papaverine hydrochloride = 1) [2]: 0,5 | ED50 [3]: 100 mg/kg

O=C(O)CCCN1CCN(CCOC(c2ccccc2)c2ccc(F)cc2)CC1 (stereo not drawn) [Derivative 12]
LD50 [1]: 1200 mg/kg | Spasmolytic activity (papaverine hydrochloride = 1) [2]: 0,1 | ED50 [3]: 35 mg/kg

CCOC(=O)CCN1CCN(CCOC(c2ccccc2)c2ccc(Cl)cc2)CC1 (stereo not drawn) [Derivative 18]
LD50 [1]: 1400 mg/kg | Spasmolytic activity (papaverine hydrochloride = 1) [2]: 1 | ED50 [3]: 30 mg/kg

COc1ccccc1C(OCCN1CCN(CCC(=O)O)CC1)c1ccccc1 (stereo not drawn) [Derivative 7]
LD50 [1]: 1400 mg/kg | ED50 [3]: > 400 mg/kg

CCCC(OCCN1CCN(CCC(=O)O)CC1)c1ccccc1 (stereo not drawn) [Derivative 35]
LD50 [1]: > 1600 mg/kg | ED50 [3]: 60 mg/kg

O=C(O)CCN1CCN(CCOC(c2ccccc2)c2ccc(Cl)cc2)CC1 (stereo not drawn) [Derivative 8]
LD50 [1]: 1000 mg/kg | ED50 [3]: 30 mg/kg

CCOC(=O)CCN1CCN(CCCOC(c2ccccc2)c2ccccc2)CC1 [Derivative 27]
LD50 [1]: 800 mg/kg | Spasmolytic activity (papaverine hydrochloride = 1) [2]: 3,5 | ED50 [3]: 50 mg/kg

COC(=O)CCCCN1CCN(CCOC(c2ccc(F)cc2)c2ccc(F)cc2)CC1 [Derivative 14]
LD50 [1]: 500 mg/kg | Spasmolytic activity (papaverine hydrochloride = 1) [2]: 3,5 | ED50 [3]: 45 mg/kg

O=C(O)CN1CCN(CCOC(c2ccccc2)c2ccc(F)cc2)CC1 (stereo not drawn) [Derivative 4]
LD50 [1]: 1600 mg/kg | ED50 [3]: 60 mg/kg

CCCCOC(=O)CCN1CCN(CCOC(c2ccc(F)cc2)c2ccc(F)cc2)CC1 [Derivative 25]
LD50 [1]: 500 mg/kg | Spasmolytic activity (papaverine hydrochloride = 1) [2]: 0,5 | ED50 [3]: 40 mg/kg

O=C(CN1CCN(CCOC(c2ccccc2)c2ccccc2)CC1)N1CCN(Cc2ccc3c(c2)OCO3)CC1 [Derivative 33, 1-(piperonylpiperazinocarbonylmethyl)-4-(2-benzhydryloxyethyl)piperazine trimaleate]
In vitro adrenolytic action on the Guinea-pig seminal vesicle [9]: 6 | In vitro atropinic action on the Guinea-pig ileum [10]: > 0,01 | In vivo spasmolytic action on paw vessels of the dog [11]: 9 | In vitro spasmolytic action on the rabbit isolated ear [12]: 0,5 | LD50 [1]: 600 mg/kg | Spasmolytic activity (papaverine hydrochloride = 1) [2]: 10,5 | spasmolytic activity for the rat isolated duodenum (in words) [2]: greatest | In vitro spasmolytic action on the rabbit aorta [13]: 5 | ED50 [3]: 25 mg/kg

CCOC(=O)CCN1CCN(CCOC(c2ccccc2)c2ccc(C)cc2)CC1 (stereo not drawn) [Derivative 19]
LD50 [1]: > 1600 mg/kg | Spasmolytic activity (papaverine hydrochloride = 1) [2]: 1,5 | ED50 [3]: > 400 mg/kg

O=C(O)CCN1CCN(CCOC(c2ccc(F)cc2)c2ccc(F)cc2)CC1 [Derivative 11]
LD50 [1]: 700 mg/kg | Spasmolytic activity (papaverine hydrochloride = 1) [2]: 0,1 | ED50 [3]: 30 mg/kg

O=C(O)CCN1CCN(CCOC(c2ccccc2)c2ccc(F)cc2)CC1 (stereo not drawn) [Derivative 5]
chronic toxicity [14]: low chronic toxicity | tolerance in chronic administration [14]: well tolerated | selectivity ratio [4]: 0.6 | secondary action on the dog cardiovascular system [5]: devoid of any secondary action | ED50 [15]: 6.5 mg/kg | Anti-sleep activity in mice [6]: Nil | anorectic action in rats [16]: absence of anorectic action | Potentiation of mortality with pentetrazole in mice ED50 [7]: 160 mg/kg | ED50 [8]: 100 mg/kg | presence of a psychostimulating action ([17]; 6 adults): 5 out of 6 | Nil results, number of cases ([17]; neurasthenia (1 case)): 1 cases | Excellent results, number of cases ([17]; neurotic depression (2 cases)): 1 cases | Good results, number of cases ([17]; neurotic depression (2 cases)): 1 cases | Excellent results, number of cases ([17]; school overwork (3 cases)): 2 cases | Good results, number of cases ([17]; school overwork (3 cases)): 1 cases | LD50 [1]: 800 mg/kg | ED50 [3]: 22 mg/kg

COc1cc(C(OCCN2CCN(CCC(=O)O)CC2)c2ccccc2)cc(OC)c1OC (stereo not drawn) [Derivative 10]
LD50 [1]: > 1600 mg/kg | ED50 [3]: > 400 mg/kg

O=C(O)CN1CCN(CCOC(c2ccccc2)c2ccccc2)CC1 [Derivative 1]
LD50 [1]: > 1600 mg/kg | ED50 [3]: 400 mg/kg

Cc1ccc(C(OCCN2CCN(CCC(=O)O)CC2)c2ccccc2)cc1 (stereo not drawn) [Derivative 9]
LD50 [1]: 1400 mg/kg | ED50 [3]: 100 mg/kg

CCOC(=O)CCN1CCN(CCCOC(c2ccccc2)c2ccc(F)cc2)CC1 (stereo not drawn) [Derivative 28]
LD50 [1]: 800 mg/kg | Spasmolytic activity (papaverine hydrochloride = 1) [2]: 6,5 | ED50 [3]: < 100 mg/kg

NC(=O)CCN1CCN(CCOC(c2ccccc2)c2ccccc2)CC1 [Derivative 30]
LD50 [1]: 1000 mg/kg | Spasmolytic activity (papaverine hydrochloride = 1) [2]: 0,1 | ED50 [3]: 80 mg/kg

CCOC(=O)CCN1CCN(CCOC(c2ccc(C)cc2)c2ccc(F)cc2)CC1 (stereo not drawn) [Derivative 22]
LD50 [1]: > 1600 mg/kg | Spasmolytic activity (papaverine hydrochloride = 1) [2]: 5,5 | ED50 [3]: 35 mg/kg
